“And” between values parts separate entries of the source, which are not always exact repeats. Identical values can stand only once. Like-named read-outs stand apart in the source and are kept apart here. Blank lines part the entries; values can stand above or below the compound they belong to.
Columns and labels:
α2-adrenergic receptor = molecular target: T1, α2-adrenergic receptor (Rattus norvegicus, UniProt P22909); assay: Tritiated Clonidine Receptor Binding Assay (inhibition of 3H-clonidine binding to rat cerebral cortex membranes); details: for inhibition at 1 µM: read-out: % I, Clonidine [3H] Binding, 1000 nM; for Ki: 0.4 nM 3H-clonidine, rat cerebral cortex membranes
T1 construct: Homogenates of rat cerebral cortex; from tissue; host or cells: rat cerebral cortex homogenate (membranes)
T1 sequence (P22909 1-465): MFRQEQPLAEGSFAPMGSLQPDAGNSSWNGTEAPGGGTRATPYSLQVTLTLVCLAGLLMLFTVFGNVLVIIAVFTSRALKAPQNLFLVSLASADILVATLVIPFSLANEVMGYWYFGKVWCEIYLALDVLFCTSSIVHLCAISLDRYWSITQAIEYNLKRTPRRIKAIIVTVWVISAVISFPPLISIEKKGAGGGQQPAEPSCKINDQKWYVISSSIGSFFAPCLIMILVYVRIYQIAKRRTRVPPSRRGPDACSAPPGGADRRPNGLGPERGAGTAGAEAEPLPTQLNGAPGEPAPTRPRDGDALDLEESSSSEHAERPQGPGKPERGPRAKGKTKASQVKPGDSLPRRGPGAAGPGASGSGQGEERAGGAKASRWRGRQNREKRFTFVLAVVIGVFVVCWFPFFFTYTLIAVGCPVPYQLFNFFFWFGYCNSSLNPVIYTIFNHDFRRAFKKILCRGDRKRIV
Protocol: (§1) The α2 -adrenergic antagonist activity of the compounds of the invention was determined by three screening methods, described as follows:
The results are expressed either in terms of percent inhibition at the concentration of antagonist used or as Ki values.

[1] = molecular target: T2, isolated, electrically stimulated rat vas deferens (Rattus norvegicus, UniProt P22909); assay: Vas Deferens Assay: antagonism of clonidine-induced inhibition of twitch height in isolated, electrically stimulated rat vas deferens; details: for Twitch height: reversal by yohimbine; for inhibition at 0.5 µM: 500 nM
T2 construct: isolated, electrically stimulated rat vas deferens; from tissue; host or cells: isolated rat vas deferens
T2 sequence (P22909 1-465): T1 sequence (P22909 1-465)
Protocol: as §1
Results are expressed either in terms of percent inhibition at the concentration of antagonist used or as pA2 values, determined by the Schild method; cf. Tallarida and Murray, Manual of Pharmacologic Calculations, pp. 29-32 (Springer-Verlag, 1981). The pA2 value is the negative logarithms of the concentration of antagonist required to cause a two-fold shift in the dose response curve to clonidine-induced inhibition of twitch height.

mice = assay: In Vivo Antagonism of Clonidine-Induced Anti-Nociception (phenyl-p-quinone writhing); details: Mus musculus; for ED50: read-out: ED50, Antagonism of Clonidine Analgesia; for responders at 3 mg/kg: 3 mg/kg s.c.
Protocol: as §1
In Vivo Antagonism of Clonidine-Induced Anti-Nociception
The intraperitoneal administration of phenyl-p-quinone (PPQ) to mice elicits a nociceptive response which consists of abdominal writhing and extension of the hind limbs. This writhing response is prevented in mice pretreated with clonidine. […] To groups of thirty male mice for each experiment, the test compound dissolved in 0.9% sodium chloride was administered either subcutaneously or orally. […] The number of mice that writhed at least three times during the five minute observation period was counted. The number of mice that writhed was scored for each dose of antagonist, and the percentage reversal of clonidine-induced anti-nociception (analgesia) was calculated by dividing the number of animals writhing by the total number of test animals and multiplying the quotient by 100. The results are also expressed as an ED50, the effective dose (in mg./kg.) in 50% of the animals to effect antagonism of clonidine-induced analgesia.

[2] = cited from earlier work
[3] = phenylquinone writing test; cited from earlier work
[4] = read-out: pA2, rat vas deferens (converted)
[5] = po, read-out: % A, Antagonism of Clonidine Analgesia, 10 mg/kg p.o.
[6] = po, read-out: % A, Antagonism of Clonidine Analgesia, 30 mg/kg p.o.
[7] = sc, read-out: % A, Antagonism of Clonidine Analgesia, 10 mg/kg s.c.
[8] = sc, read-out: % A, Antagonism of Clonidine Analgesia, 30 mg/kg s.c.
[9] = sc, read-out: % A, Antagonism of Clonidine Analgesia
[10] = sc, read-out: % A, Antagonism of Clonidine Analgesia, 1 mg/kg s.c.
[11] = rat, read-out: % A, rat vas deferens, 100 nM
[12] = rat, 100 nM, read-out: % A, rat vas deferens
[13] = rat, read-out: % A, rat vas deferens

- inhibition at 1 µM (α2-adrenergic receptor): 85%
- Kb [1, 4]: 110 nM
SMILES: C=CCC1(C2=NCCN2)Cc2ccccc2N1C (centres unmarked) [Example 1D]
- ED50 (mice; po, p.o.): 11.1 mg/kg

SMILES: Cn1c(CC2=NCCN2)cc2ccccc21 [Example 1X]
- Kb [1]: 33.1 nM
- responders at 10 mg/kg (mice; [5]): 0%
- responders at 30 mg/kg (mice; [6]): 10%
- responders at 100 mg/kg (mice; po, read-out: % A, Antagonism of Clonidine Analgesia, 100 mg/kg p.o.): 50%
- responders at 10 mg/kg (mice; [7]): 50%
- responders at 30 mg/kg (mice; [8]): 60%
- responders at 100 mg/kg (mice; sc, read-out: % A, Antagonism of Clonidine Analgesia, 100 mg/kg s.c.): 50%

SMILES: CCCCN1c2ccccc2CC1C1=NCCN1 (centres unmarked) [Example 1L]
- Kb [1]: 1.58 nM
- responders at 3 mg/kg (mice; [9]): 20%
- responders at 5.5 mg/kg (mice; sc, read-out: % A, Antagonism of Clonidine Analgesia, 5.5 mg/kg s.c.): 100%
- responders at 10 mg/kg (mice; [7]): 100%

SMILES: C[C@@H]1c2ccccc2N(C)[C@@H]1C1=NCCN1 (relative stereo) [Example 1Z]
- agonist activity, rat vas deferens ([1]; as agonist): active
- antagonist activity, rat vas deferens ([1]; as antagonist): Inac.
- responders at 0.1 mg/kg (mice; sc, read-out: % A, Antagonism of Clonidine Analgesia, 0.1 mg/kg s.c.): 80%
- responders at 0.3 mg/kg (mice; sc, read-out: % A, Antagonism of Clonidine Analgesia, 0.3 mg/kg s.c.): 70%
- responders at 1 mg/kg (mice; [10]): 30%
- responders at 3 mg/kg (mice; [9]): 0%
- responders at 10 mg/kg (mice; [7]): 0%

- inhibition at 1 µM (α2-adrenergic receptor): 44.6%
- % A, rat vas deferens ([1]; 0.1 nM, 0.0001 µM): 3%
- % A, rat vas deferens ([1]; 1 nM, 0.001 µM): 0% and 1%
- inhibition at 0.0001 µM ([1]; rat, 0.1 nM): 2%
SMILES: c1ccc(C2CC(C3=NCCN3)Nc3ccccc32)cc1 (centres unmarked) [Example 1W]

- Ki (α2-adrenergic receptor): 2.3 nM
- Kb [1, 4]: 11.7 nM
SMILES: c1ccc(CN2c3ccccc3CC2C2=NCCN2)cc1 (centres unmarked) [Example 1E]
- ED50 (mice; po, p.o.): 0.051 mg/kg
- ED50 (mice; sc, s.c.): 0.18 mg/kg

SMILES: C=C1c2ccccc2N(C)C1(C)C1=NCCN1 (centres unmarked) [Example 1AF]
- fold shift of clonidine ([1]; 10 μm): 23.9 fold

- Twitch height [1]: reversed by yohimbine
SMILES: CC(C)N(CC1(C2=NCCN2)Cc2ccccc2N1C)C(C)C (centres unmarked) [Example 1AC]
- responders at 10 mg/kg (mice; [5]): 50%
- responders at 30 mg/kg (mice; [6]): 50%

- fold shift of clonidine ([1]; 10 μm): 3.9 fold
SMILES: COc1c(C2=NCCN2)n(C)c2ccccc12 [Example 1AG]

SMILES: CN1c2c(Cl)cccc2CC1C1=NCCN1 (centres unmarked) [Example 1K]
- Kb [1]: 1.58 nM
- responders at 0.03 mg/kg (mice; sc, read-out: % A, Antagonism of Clonidine Analgesia, 0.03 mg/kg s.c.): 70%
- responders at 1 mg/kg (mice; [10]): 100%
- responders at 3 mg/kg (mice; [9]): 100%
- responders at 10 mg/kg (mice; [7]): 100%

SMILES: C=CCN1c2ccccc2CC1C1=NCCN1 (centres unmarked) [Example 1M]
- Kb [1]: 0.851 nM
- ED50 (mice; po, p.o.): 2.6 mg/kg

- fold shift of clonidine ([1]; 20 μm): 3.5 fold
SMILES: CCN1CCN=C1C1C(C)c2ccccc2N1C (centres unmarked) [Example 1AD]

SMILES: c1ccc2c(c1)CC(C1=NCCN1)N2 (centres unmarked) [Example 1O]
- Kb [1]: 6.92 nM
- ED50 (mice; po, p.o.): 1.8 mg/kg

- Ki (α2-adrenergic receptor): 355 nM
SMILES: CN1c2ccccc2CC1CC1=NCCN1 (centres unmarked) [Example 1G]
- responders at 30 mg/kg (mice; [8]): 0%

SMILES: C[C@H]1c2ccccc2N(C)[C@@H]1C1=NCCN1 (relative stereo) [Example 1T]
- Kb [1]: 110 nM
- ED50 (mice; po, p.o.): 41 mg/kg

SMILES: CN1c2c(Cl)cc(Cl)cc2CC1C1=NCCN1 (centres unmarked) [Example 1S]
- Kb [1]: 10 nM
- ED50 (mice; po, p.o.): 60.1 mg/kg

SMILES: Cn1c(C2=NCCN2)cc2ccccc21 [Example 1Y]
- inhibition at 1 µM (α2-adrenergic receptor): 32.5%
- inhibition at 0.1 µM [1, 11]: 3%

SMILES: c1ccc2c(c1)CCC(C1=NCCN1)N2 (centres unmarked) [Example 1U]
- Kb [1]: 9.33 nM
- ED50 (mice; po, p.o.): 3.8 mg/kg

SMILES: CCCN1c2ccccc2CC1C1=NCCN1 (centres unmarked) [Example 1J]
- Kb [1]: 1.74 nM

- Kb [1, 4]: 25.7 nM
SMILES: CN1c2ccc(Cc3ccccc3)cc2CC1C1=NCCN1 (centres unmarked) [Example 1P]
- ED50 (mice; sc, s.c.): 11.3 mg/kg

SMILES: CN1c2ccccc2CCC1C1=NCCN1 (centres unmarked) [Example 1V]
- Kb [1]: 7.41 nM
- ED50 (mice; po, p.o.): 2.6 mg/kg

- inhibition at 0.1 µM [1, 12]: 81%
- inhibition at 0.5 µM [1, 13]: 94%
SMILES: c1ccc(CCN2c3ccccc3CC2C2=NCCN2)cc1 (centres unmarked) [Example 1Q]

SMILES: CN1c2ccc(F)cc2CC1C1=NCCN1 (centres unmarked) [Example 1A, 2-(4,5-dihydro-1H-imidazol-2-yl)-5-fluoro-2,3-dihydro-1-methyl-1H-indole]
- Ki (α2-adrenergic receptor): 0.92 nM
- Kb [1]: 3.55 nM
- ED50 (mice; po, p.o.): 0.75 mg/kg
- ED50 (mice; sc, s.c.): 0.0071 mg/kg

SMILES: CN1c2ccc(Cl)cc2CC1C1=NCCN1 (centres unmarked) [Example 1H]
- Kb [1]: 2.75 nM
- ED50 (mice; po, p.o.): 1.5 mg/kg

- % I, Clonidine [3H] Binding (α2-adrenergic receptor; concentration not given): 43.5%
- % A, rat vas deferens ([1]; 100 nM, 0.1 µM): 7%
- inhibition at 0.1 µM [1, 12]: 6%
- inhibition at 0.5 µM [1, 13]: 52%
- inhibition at 0.5 µM ([1]; rat, read-out: reduced twitch height): 67%
SMILES: COCC1(C2=NCCN2)Cc2ccccc2N1C (centres unmarked) [Example 1AA]
- responders at 1 mg/kg (mice; po, read-out: % A, Antagonism of Clonidine Analgesia, 1 mg/kg p.o.): 0%
- responders at 10 mg/kg (mice; [5]): 10%
- responders at 30 mg/kg (mice; [6]): 70%
- ED50 (mice; po, p.o.): 21.8 mg/kg
- ED50 (mice; sc, s.c.): 2.6 mg/kg

- fold shift of clonidine ([1]; 20 μm): 15 fold
SMILES: CC1c2ccccc2N(C)C1CC1=NCCN1 (centres unmarked) [Example 1AE]

SMILES: c1ccc2c(c1)CCN2C1=NCCN1 [1-(4,5-dihydro-1H-imidazol-2-yl)-2,3-dihydro-1H-indole]
- analeptic activity, antagonism of chloral hydrate ([2]; chloral hydrate): inactive
- analeptic activity, antagonism of pentobarbital ([2]; pentobarbital): active
- analgesic activity [3]: active

SMILES: CCOCCN1c2ccccc2CC1C1=NCCN1 (centres unmarked) [Example 1N]
- Kb [1]: 15.5 nM
- ED50 (mice; po, p.o.): 26.5 mg/kg

- Twitch height [1]: reversed by yohimbine
SMILES: CSCC1(C2=NCCN2)Cc2ccccc2N1C (centres unmarked) [Example 1AB]
- responders at 10 mg/kg (mice; [5]): 0%
- responders at 30 mg/kg (mice; [6]): 90%

SMILES: c1ccc(N2c3ccccc3CC2C2=NCCN2)cc1 (centres unmarked) [Example 1R]
- inhibition at 0.1 µM [1, 11]: 100%
- ED50 (mice; po, p.o.): 19.8 mg/kg

SMILES: CCN1c2ccccc2CC1C1=NCCN1 (centres unmarked) [Example 1C]
- Ki (α2-adrenergic receptor): 0.91 nM
- Kb [1]: 1.23 nM
- ED50 (mice; po, p.o.): 0.098 mg/kg
- ED50 (mice; sc, s.c.): 0.034 mg/kg

SMILES: CN1c2ccccc2CC1C1=NCCN1 (centres unmarked) [Example 1B]
- Ki (α2-adrenergic receptor): 0.46 nM
- Kb [1]: 3.31 nM
- ED50 (mice; sc, s.c.): 12 mg/kg

SMILES: CN1c2ccccc2CC1(C)C1=NCCN1 (centres unmarked) [Example 1F]
- Ki (α2-adrenergic receptor): 3.39 nM
- Kb [1]: 28.2 nM
- ED50 (mice; po, p.o.): 8.8 mg/kg
